Results reported in ChEMBL document CHEMBL1201862, “PubChem BioAssay data set” (2004).
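Values below derive from 48-hour exposures of cells grown in 96-well plates, with endpoints linearly interpolated between the two concentrations bracketing the appropriate inhibition level. Here, GI50 denotes the concentration required for 50% inhibition of growth.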 Active and inactive are the calls of the source. Rule as the data show it: active = GI50 up to about 1.1 µM and inactive = higher.

Legend:
Assay in all cases: NCI-60 cell line screen, 48 h
[1] = tested on: SK-MEL-2
[2] = tested on: SW-620
[3] = tested on: A549
[4] = tested on: OVCAR-5
[5] = tested on: OVCAR-8
[6] = tested on: HT-29
[7] = tested on: PC-3
[8] = tested on: DU-145
[9] = tested on: T47D
[10] = tested on: U-251
[11] = tested on: UACC-62
[12] = tested on: ACHN
[13] = tested on: NCI/ADR-RES
[14] = tested on: NCI-H460
[15] = tested on: RXF 393
[16] = tested on: SF-268
[17] = tested on: NCI-H226
[18] = tested on: EKVX
[19] = tested on: CCRF-CEM
[20] = tested on: COLO 205

Measured: GI50

COC(=O)/C=C\C(C#N)(C#N)/N=C/c1cccc(OC)c1
inactive: [1] 17.1 µM | [2] 2.13 µM | [3] 17.9 µM | [4] 8.49 µM | [5] 3.13 µM | [6] 3.77 µM | [7] 15.8 µM | [8] 14.5 µM | [9] 4.8 µM | [10] 15.9 µM | [11] 15.2 µM | [12] 2.61 µM | [13] 14.4 µM | [14] 20 µM | [15] 3.18 µM | [16] 17.2 µM | [17] 14.3 µM | [18] 11.6 µM | [19] 1.72 µM | [20] 2.15 µM

CC(C)(C)c1cc(OCc2nnc3sc(S)nn23)c(Cl)cc1OCc1nnc2sc(S)nn12
inactive: [1] 27.4 µM | [2] 31.9 µM | [3] 35.1 µM | [4] 35.2 µM | [5] 37.2 µM | [6] 38 µM | [7] 50.9 µM | [8] 30.3 µM | [9] 19 µM | [10] 29.1 µM | [11] 17.4 µM | [12] 26.1 µM | [13] 78.5 µM | [14] 29 µM | [15] 22.4 µM | [16] 24.9 µM | [17] > 100 µM | [18] 30.3 µM | [19] 11.3 µM | [20] 39.1 µM

CC1Cc2cc(O)c(O)cc2-c2cc(O)c(O)cc2CC1C (stereo not given)
inactive: [1] 4.32 µM | [2] 20.5 µM | [3] 31.6 µM | [4] 18.9 µM | [5] 23.3 µM | [6] 24 µM | [7] 19.3 µM | [8] 36.3 µM | [9] 25.2 µM | [10] 15.2 µM | [11] 6.07 µM | [12] 24.6 µM | [13] 12.6 µM | [14] 20.4 µM | [15] 18.1 µM | [16] 25.9 µM | [17] 24.3 µM | [18] 18.5 µM | [19] 14.1 µM | [20] 17.8 µM

N=C(N)SCCON1C(=O)c2ccccc2C1=O
inactive: [1] > 100 µM | [2] > 100 µM | [3] > 100 µM | [4] > 100 µM | [5] > 100 µM | [6] > 100 µM | [7] > 100 µM | [8] > 100 µM | [9] > 100 µM | [10] > 100 µM | [11] > 100 µM | [12] > 100 µM | [13] > 100 µM | [14] > 100 µM | [15] > 100 µM | [16] > 100 µM | [17] > 100 µM | [18] > 100 µM | [19] > 100 µM | [20] > 100 µM

COc1ncnc2c1cnn2Cc1cn(CCCCO)nn1
inactive: [1] > 100 µM | [2] > 100 µM | [3] > 100 µM | [4] > 100 µM | [5] > 100 µM | [6] > 100 µM | [7] > 100 µM | [8] > 100 µM | [9] > 100 µM | [10] > 100 µM | [11] > 100 µM | [12] > 100 µM | [13] > 100 µM | [14] > 100 µM | [15] > 100 µM | [16] > 100 µM | [17] > 100 µM | [18] > 100 µM | [19] > 100 µM | [20] > 100 µM

CCCCNc1nc(NC2OCC(OC(C)=O)C(OC(C)=O)C2OC(C)=O)c(N=O)c(=O)n1C (stereo not given)
inactive: [1] > 10 µM | [2] > 10 µM | [3] > 10 µM | [4] > 10 µM | [5] > 10 µM | [6] > 10 µM | [7] > 10 µM | [8] > 10 µM | [9] > 10 µM | [10] > 10 µM | [11] > 10 µM | [12] > 10 µM | [13] > 10 µM | [14] > 10 µM | [15] > 10 µM | [16] > 10 µM | [17] > 10 µM | [18] > 10 µM | [19] > 10 µM | [20] > 10 µM

CC1=C(OC2OC(CO)C(O)C(O)C2O)C(=O)C[C@H]2C1=CC[C@@H]1[C@@]2(C)C(=O)C[C@]2(C)[C@@H]([C@@](C)(O)C(=O)CCC(C)(C)O)[C@H](O)C[C@@]12C (stereo not given in full)
inactive: [1] > 100 µM | [2] > 100 µM | [3] > 100 µM | [4] > 100 µM | [5] > 100 µM | [6] > 100 µM | [7] > 100 µM | [8] > 100 µM | [9] > 100 µM | [10] > 100 µM | [11] > 100 µM | [12] > 100 µM | [13] > 100 µM | [14] > 100 µM | [15] > 100 µM | [16] > 100 µM | [17] > 100 µM | [18] > 100 µM | [19] > 100 µM | [20] > 100 µM

CCc1ccc2c(c1)/C(=C1/Nc3ccccc3/C1=N/O)C(=O)N2
inactive: [1] 4.38 µM | [2] 4.53 µM | [3] 6.37 µM | [4] 18.6 µM | [5] 6.55 µM | [6] 4.71 µM | [7] 6.85 µM | [8] 6.49 µM | [9] 6.28 µM | [10] 9.31 µM | [11] 11 µM | [12] 3.84 µM | [13] 6.84 µM | [14] 5.11 µM | [15] 2.81 µM | [16] 8.22 µM | [17] 12 µM | [18] 5.19 µM | [19] 3.21 µM | [20] 8.83 µM

Cc1ccc2nc(Cl)c(/C=N/N3C(=O)/C(=C/Cc4ccco4)N=C3c3ccccc3)cc2c1
inactive: [1] 56.6 µM | [2] 58.1 µM | [3] 36.4 µM | [4] > 74.6 µM | [5] 34.4 µM | [6] 32.7 µM | [7] 61.4 µM | [8] 36.6 µM | [9] > 50 µM | [10] 50.8 µM | [11] 60.5 µM | [12] 72.3 µM | [13] 28.4 µM | [14] 26.4 µM | [15] 2.54 µM | [16] 31.3 µM | [17] > 54.6 µM | [18] 30.5 µM | [19] > 100 µM | [20] 51.5 µM

COc1cc(C2SC(=N)Nc3c2c(C)nn3C(=O)c2ccc(Cl)cc2)ccc1O (stereo not given)
inactive: [1] > 10 µM | [2] > 10 µM | [3] > 10 µM | [4] > 10 µM | [5] > 10 µM | [6] > 10 µM | [7] > 10 µM | [8] > 10 µM | [9] > 10 µM | [10] > 10 µM | [11] > 10 µM | [12] > 10 µM | [13] > 10 µM | [14] > 10 µM | [15] > 10 µM | [16] > 10 µM | [17] > 10 µM | [18] > 10 µM | [19] > 10 µM | [20] > 10 µM
